Source: US11066400B2, “Compounds for the treatment of cancer” (Hoffmann-La Roche Inc., priority 2015, dated 2021)

How the values were obtained:
[1] = test system: FoxM1_ΔVIIa / FoxM1_FL mRNA (FoxM1 gene splicing); test: Monitoring expression levels of FoxM1 splice variants using real-time quantitative PCR; type: cell-based; details: Fibroblast; human fibroblasts, 24 hours, RT-qPCR, Hill fit of concentration dependence curves
Protocol: Human fibroblasts were plated at 10,000 cells/well in 200 μl DMEM with GlutaMAX and 10% FBS in 96-well plates in a cell culture incubator (37° C., 5% CO2, 100% relative humidity). Cells were then treated with compounds at different concentrations (0.1-300 nM, each in 0.5% DMSO) in triplicate for 24 hours. RNA extraction was performed as per instructions mentioned in the Ambion® Cells-to-CT™ Kits from Applied Biosystems®. RNA samples were frozen at −20° C. until further analysis. Relative expression levels of full-length FoxM1 (FoxM1_FL) or FoxM1 lacking exon VIIa (FoxM1_ΔVIIa) with GAPDH for internal control, was measured using one-step multiplex reverse transcription-polymerase chain reaction (RT-PCR). TaqMan® FAM probes were used for relative quantitation of FoxM1_FL or FoxM1_ΔVIIa expression levels and TaqMan® VIC probes were used for relative quantitation of human GAPDH levels. The fidelity of the amplification methods was determined using the ΔΔCt relative quantification method for quantitative PCR.
To investigate an effect on splicing of FoxM1, human fibroblasts were treated for 24 hours with compounds of the present invention in dose response, and analysed by RT-qPCR for presence of mRNA including (FoxM1_FL) or excluding the exon VIIa (FoxM1_ΔVIIa). […] Correspondingly, the mRNAs for FoxM1_ΔVIIa declined. […] The resulting concentration dependence curves of the FoxM1_ΔVIIa splice variant were fitted to a Hill binding equation to yield IC50 values that are described in Table 1. […] Taken together, the data underline a splicing modifying activity in the FoxM1 gene.

[2] = test system: SMN protein; details: taken from Activity Tables of WO 2014/028459, WO 2014/116845, WO 2015/017589; cited from earlier work

## CN(c1ccc(-c2ccc(C#N)cc2O)nn1)C1CC(C)(C)NC(C)(C)C1 [Compound 1, 3-hydroxy-4-(6-(methyl(2,2,6,6-tetramethylpiperidin-4-yl)amino)pyridazin-3-yl)benzonitrile]
[1]
  IC50: 41 nM

## CN(c1ccc(-c2ccc(-c3cn[nH]c3)cc2O)nn1)C1CC(C)(C)NC(C)(C)C1 [Compound 2, 5-(1H-pyrazol-4-yl)-2-(6-(methyl(2,2,6,6-tetramethylpiperidin-4-yl)amino)pyridazin-3-yl)phenol]
[1]
  IC50: 0.9 nM

## CN(c1ccc(-c2ccc(-c3cnn(C)c3)cc2O)nn1)C1CC(C)(C)NC(C)(C)C1 [Compound 3, 2-(6-(methyl-(2,2,6,6-tetramethylpiperidin-4-yl)amino)pyridazin-3-yl)-5-(1-methyl-1H-pyrazol-4-yl)phenol]
[1]
  IC50: 9.8 nM

## CC1(C)CC(Oc2ccc(-c3ccc(-c4cn[nH]c4)cc3O)nn2)CC(C)(C)N1 [Compound 4]
[1]
  IC50: 17 nM

## CC1(C)CC(Oc2ccc(-c3ccc(-n4cccn4)cc3O)nn2)CC(C)(C)N1 [Compound 5]
[1]
  IC50: 278 nM

## CN(c1ccc(-c2ccc(-c3ccc(=O)n(C)c3)cc2O)nn1)C1CC(C)(C)NC(C)(C)C1 [Compound 7, 5-(3-hydroxy-4-(6-(methyl-(2,2,6,6-tetramethylpiperidin-4-yl)amino)pyridazin-3-yl)phenyl)-1-methylpyridin-2(1H)-one]
[1]
  IC50: 167 nM

## CN(c1ccc(-c2cc3ccccc3cc2O)nn1)C1CC(C)(C)NC(C)(C)C1 [Compound 8, 3-(6-(methyl(2,2,6,6-tetramethylpiperidin-4-yl)amino)pyridazin-3-yl)naphthalen-2-ol]
[1]
  IC50: 3.7 nM

## CN(c1ccc(-c2cc3ccc(O)cc3cc2O)nn1)C1CC(C)(C)NC(C)(C)C1 [Compound 9, 3-(6-(methyl-(2,2,6,6-tetramethylpiperidin-4-yl)amino)pyridazin-3-yl)naphthalene-2,7-diol]
[1]
  IC50: 0.7 nM

## COc1ccc2cc(-c3ccc(N(C)C4CC(C)(C)NC(C)(C)C4)nn3)c(O)cc2c1 [Compound 11, 7-methoxy-3-(6-(methyl(2,2,6,6-tetramethylpiperidin-4-yl)amino)pyridazin-3-yl)naphthalen-2-ol]
[1]
  IC50: 0.8 nM

## CN(c1nnc(-c2ccc(-c3cn[nH]c3)cc2Cl)s1)C1CC(C)(C)NC(C)(C)C1 [Compound 12, 5-(2-Chloro-4-(1H-pyrazol-4-yl)phenyl)-N-methyl-N-(2,2,6,6-tetramethylpiperidin-4-yl)-1,3,4-thiadiazol-2-amine]
[2]
  EC50: 34 nM
[1]
  IC50: 265 nM

## CN(c1nnc(-c2ccc(-c3ccn(C)c(=O)c3)cc2Cl)s1)C1CC(C)(C)NC(C)(C)C1 [Compound 13, 4-(3-chloro-4-(5-(methyl(2,2,6,6-tetramethylpiperidin-4-yl)amino)-1,3,4-thiadiazol-2-yl)phenyl)-1-methylpyridin-2(1H)-one]
[2]
  EC50: 50 nM
[1]
  IC50: 345 nM

## CN(c1nnc(-c2cc(F)c(-c3ccn[nH]3)cc2F)s1)C1CC(C)(C)NC(C)(C)C1 [Compound 14, 5-(2,5-difluoro-4-(1H-pyrazol-5-yl)phenyl)-N-methyl-N-(2,2,6,6-tetramethylpiperidin-4-yl)-1,3,4-thiadiazol-2-amine]
[2]
  EC50: 85 nM
[1]
  IC50: 144 nM
